Reference: patent US7138231B2 (priority 2000, dated 2006)
“Also recorded” adds a separate entry of the source.

Legend:
[1] = tested on: HIV-1 patient-derived protease and reverse transcriptase segments (N88S in PR) in resistance test vectors; assay: Phenotypic drug susceptibility test with resistance test vectors from patient samples; type: cell-based; details: for Fold Change vs. reference: N88S
[2] = tested on: HIV-1 variants with protease substitutions; details: cited from earlier work
[3] = tested on: HIV-1 protease site-directed mutants (N88S, L63P, V77I, M46L) in resistance test vector; assay: Phenotypic susceptibility assay of resistance test vectors with site-directed mutations in PR
Source text: The resistance test vectors containing a functional luciferase gene cassette were constructed and host cells were transfected with the resistance test vector DNA. […] The resistance test vector viral particles produced by transfecting the resistance test vector DNA into host cells, either in the presence or absence of protease inhibitors, were used to infect target host cells grown either in the absence of NRTI or NNRTI or in the presence of increasing concentrations of the drug. Luciferase activity in infected target host cells in the presence of drug was compared to the luciferase activity in infected target host cells in the absence of drug. […] The IC50 values were determined by plotting percent drug inhibition vs. log10 drug concentration.
Host cells were seeded in 10-cm-diameter dishes and were transfected one day after plating with resistance test vector plasmid DNA and the envelope expression vector. Transfections were performed using a calcium-phosphate co-precipitation procedure. The cell culture media containing the DNA precipitate was replaced with fresh medium, from one to 24 hours, after transfection. Cell culture media containing resistance test vector viral particles was harvested one to four days after transfection and was passed through a 0.45-mm filter before being stored at −80° C. HIV capsid protein (p24) levels in the harvested cell culture media were determined by an EIA method as described by the manufacturer (SIAC; Frederick, Md.). Before infection, target cells (293 and 293/T) were plated in cell culture media. Control infections were performed using cell culture media from mock transfections (no DNA) or transfections containing the resistance test vector plasmid DNA without the envelope expression plasmid. One to three or more days after infection the media was removed and cell lysis buffer (Promega) was added to each well. Cell lysates were assayed for luciferase activity. The inhibitory effect of the drug was determined using the following equation: % luciferase inhibition=[1−(RLUluc[drug]RLUluc)]×100 where RLUluc [drug] is the relative light unit of luciferase activity in infected cells in the presence of drug and RLUluc is the Relative Light Unit of luciferase activity in infected cells in the absence of drug. IC50 values were obtained from the sigmoidal curves that were generated from the data by plotting the percent inhibition of luciferase activity vs. the log10 drug concentration.
Mutations are introduced into the resistance test vector through any of the widely known methods for site-directed mutagenesis. […] A resistance test vector containing the specific mutation or group of mutations are then tested using the phenotypic susceptibility assay described above and the susceptibility profile is compared to that of a genetically defined wild-type (drug susceptible) resistance test vector which lacks the specific mutations.
Resistance test vectors were constructed containing the N88S mutation alone and in combination with other substitutions in PR (L63P, V77I and M46L) known to modulate the HIV susceptibility to PRIs. Mutations were introduced into the resistance test vector using the mega-primer PCR method for site-directed mutagenesis.

[4] = tested on: HIV-1 patient viruses with protease L90M; assay: Phenotypic susceptibility profiles of 333 patient virus samples with L90M (not 30 or 50); type: cell-based
[5] = tested on: HIV-1 patient viruses with protease L90M; assay: Phenotypic susceptibility profiles of 58 patient virus samples with L90M, no other primary mutations; type: cell-based; details: for % FC > 2.5: IDV; for % w with IDV FC > 2.5: L90M

## CC(C)c1nc(CN(C)C(=O)N[C@H](C(=O)N[C@@H](Cc2ccccc2)C[C@H](O)[C@H](Cc2ccccc2)NC(=O)OCc2cncs2)C(C)C)cs1 [ritonavir]
[1]; patient sample 360, prior PRI IDV, PR I13V, K20M, M36V, N37A, M46I, I62V, L63P, I93L
  Fold Change vs. reference: 1.49 fold
[1]; patient sample 627, prior PRI IDV, PR I13I/V, E35D, M46L, L63P, I64V, I73V
  Fold Change vs. reference: 1.50 fold
[1]; patient sample 0732, prior PRI NFV, PR K14R, I15V, K20T, E35D, M36I, R41K, I62V, L63Q
  Fold Change vs. reference: 1.72 fold
[1]; patient sample 0910, prior PRI NFV, PR M46I, L63P, V77I, I93I/L
  Fold Change vs. reference: 1.85 fold
[1]; patient sample 1208, prior PRI NFV, PR I62V, L63P, V77I
  Fold Change vs. reference: 1.22 fold
[1]; patient sample 3542, prior PRI IDV, PR I13V, K14R, N37D, M46I, L63P, I93L
  Fold Change vs. reference: 3.36 fold
[1]; patient sample 3654, PR I13V, R41K, M46I, L63P, V77I, I93L
  Fold Change vs. reference: 1.95 fold
[1]; patient sample RTV-3542
  change in susceptibility: decrease
[2]; I84V substitution
  reduction in sensitivity: 10 fold
[2]; I84V with addition of V82F
  level of resistance: up to 20 fold
[2]; M46I, L63P, A71V introduced into wild-type NL4-3
  change in drug susceptibility: did not result in significant changes in drug susceptibility
[3]; N88S-RTV
  change in susceptibility compared to wild type control RTV: more susceptible
[3]; site-directed mutation N88S
  Fold Change vs. reference: 0.36 fold
[3]; site-directed mutations L63P
  Fold Change vs. reference: 1.27 fold
[3]; site-directed mutations L63P, N88S
  Fold Change vs. reference: 0.77 fold
[3]; site-directed mutations L63P, V77I
  Fold Change vs. reference: 1.73 fold
[3]; site-directed mutations L63P, V77I, N88S
  Fold Change vs. reference: 1.39 fold
[3]; site-directed mutations M46L, L63P, N88S
  Fold Change vs. reference: 0.85 fold
[3]; site-directed mutations M46L, L63P, V77I, N88S
  Fold Change vs. reference: 1.33 fold
[4]; L90M
  Percent of viruses with indicated primary mutation(s) with reduced susceptibility (fold change in IC50 > 2.5): 93.4%
  Percent of viruses with indicated primary mutation(s) with reduced susceptibility (fold change in IC50 > 10): 66.1%

## CC(C)(C)NC(=O)[C@@H]1CN(Cc2cccnc2)CCN1C[C@@H](O)C[C@@H](Cc1ccccc1)C(=O)N[C@H]1c2ccccc2C[C@H]1O [indinavir]
[1]; patient sample RTV-360
  change in susceptibility: decrease
[1]; patient sample RTV-627
  change in susceptibility: decrease
[1]; patient sample RTV-0732
  change in susceptibility: decrease; also recorded: decreased susceptibility
[1]; patient sample RTV-0910
  change in susceptibility: decrease
[1]; patient sample RTV-1208
  change in susceptibility: decrease
[1]; patient sample RTV-3542
  change in susceptibility: decrease
[1]; patient sample RTV-3654
  change in susceptibility: decrease
[2]; mutant HIV-1 clones with mutations at residues 46, 63, and 82
  loss of susceptibility: fourfold
[2]; selection in MT-4 cells, substitutions at residues 32, 46, 71, and 82
  loss of susceptibility compared with the wild type: 6.1 fold
[3]; L63P-N88S-RTV
  change in susceptibility compared to wild type control RTV: decreased susceptibility
[3]; L63P-V77I-N88S-RTV
  change in susceptibility compared to wild type control RTV: decrease in susceptibility; also recorded: resistance
[3]; M46L-L63P-N88S-RTV
  change in susceptibility compared to wild type control RTV: slight decrease in susceptibility
[3]; M46L-L63P-V77I-N88S-RTV
  change in susceptibility compared to wild type control RTV: decrease in susceptibility
[4]; Indinavir FC>2.5, L90M, position 10 wild type
  wt % > 2.5: 66.7%
[4]; Indinavir FC>2.5, L90M, position 13 wild type
  wt % > 2.5: 87.1%
[4]; Indinavir FC>2.5, L90M, position 20 wild type
  wt % > 2.5: 81.2%
[4]; Indinavir FC>2.5, L90M, position 46 wild type
  wt % > 2.5: 76.3%
[4]; Indinavir FC>2.5, L90M, position 53 wild type
  wt % > 2.5: 83.2%
[4]; Indinavir FC>2.5, L90M, position 54 wild type
  wt % > 2.5: 76.0%
[4]; Indinavir FC>2.5, L90M, position 63 wild type
  wt % > 2.5: 50.0%
[4]; Indinavir FC>2.5, L90M, position 71 wild type
  wt % > 2.5: 69.0%
[4]; Indinavir FC>2.5, L90M, position 73 wild type
  wt % > 2.5: 80.6%
[4]; Indinavir FC>2.5, L90M, position 74 wild type
  wt % > 2.5: 87.0%
[4]; Indinavir FC>2.5, L90M, position 82 wild type
  wt % > 2.5: 78.3%
[4]; Indinavir FC>2.5, L90M, position 84 wild type
  wt % > 2.5: 79.0%
[4]; Indinavir FC>2.5, L90M, position 95 wild type
  wt % > 2.5: 83.5%
[4]; Indinavir FC>2.5, listed as 90: all samples with L90M
  mt % > 2.5: 84.7%
[4]; Indinavir FC>10, L90M, position 10 wild type
  wt % > 10: 23.1%
[4]; Indinavir FC>10, L90M, position 20 wild type
  wt % > 10: 47.2%
[4]; Indinavir FC>10, L90M, position 36 wild type
  wt % > 10: 48.9%
[4]; Indinavir FC>10, L90M, position 46 wild type
  wt % > 10: 44.4%
[4]; Indinavir FC>10, L90M, position 54 wild type
  wt % > 10: 36.3%
[4]; Indinavir FC>10, L90M, position 55 wild type
  wt % > 10: 51.8%
[4]; Indinavir FC>10, L90M, position 62 wild type
  wt % > 10: 45.3%
[4]; Indinavir FC>10, L90M, position 71 wild type
  wt % > 10: 37.0%
[4]; Indinavir FC>10, L90M, position 72 wild type
  wt % > 10: 50.0%
[4]; Indinavir FC>10, L90M, position 74 wild type
  wt % > 10: 57.3%
[4]; Indinavir FC>10, L90M, position 82 wild type
  wt % > 10: 39.9%
[4]; Indinavir FC>10, L90M, position 84 wild type
  wt % > 10: 46.3%
[4]; Indinavir FC>10, L90M, position 85 wild type
  wt % > 10: 52.3%
[4]; Indinavir FC>10, L90M, position 95 wild type
  wt % > 10: 51.6%
[4]; Indinavir FC>10, listed as 90: all samples with L90M
  mt % > 10: 53.8%
[5]; L90M + mutation at position 46
  % FC > 2.5: 88%
[5]; L90M + mutation at position 71
  % FC > 2.5: 89%
[5]; L90M + mutation at position 71, listed as IDV
  % FC > 2.5: 89%
[5]; L90M + mutation at position 73
  % FC > 2.5: 89%
[5]; L90M + mutation at position 73, listed as IDV
  % FC > 2.5: 89%
[5]; listed as 90: all viruses with L90M
  % FC > 2.5: 69%
[5]; number of secondary mutations 0
  % w with IDV FC > 2.5: 69%
[5]; number of secondary mutations 1
  % w with IDV FC > 2.5: 70%
[5]; number of secondary mutations 2
  % w with IDV FC > 2.5: 70%
[5]; number of secondary mutations 3
  % w with IDV FC > 2.5: 80%
[5]; number of secondary mutations 4
  % w with IDV FC > 2.5: 87%
[5]; number of secondary mutations 5
  % w with IDV FC > 2.5: 100%
[5]; number of secondary mutations 6
  % w with IDV FC > 2.5: 100%

## Cc1c(O)cccc1C(=O)N[C@@H](CSc1ccccc1)[C@H](O)CN1C[C@H]2CCCC[C@H]2C[C@H]1C(=O)NC(C)(C)C [nelfinavir]
[1]; patient sample RTV-360
  change in susceptibility: decrease
[1]; patient sample RTV-627
  change in susceptibility: decrease
[1]; patient sample RTV-0732
  change in susceptibility: decrease; also recorded: decreased susceptibility
[1]; patient sample RTV-0910
  change in susceptibility: decrease
[1]; patient sample RTV-1208
  change in susceptibility: decrease
[1]; patient sample RTV-3542
  change in susceptibility: decrease
[1]; patient sample RTV-3654
  change in susceptibility: decrease
[2]; I84V and D30N single mutants and M46I/I84V double mutant of HIV-1 NL4-3
  increase in 90% effective concentration: fivefold
[2]; M46I, L63P, or A71V alone
  change in susceptibility: no change in susceptibility
[2]; variant P22, 22 serial passages of HIV-1 NL4-3
  reduced susceptibility: sevenfold
[2]; variant P28, additional six passages
  decreased susceptibility: 30 fold
[3]; L63P-N88S-RTV
  change in susceptibility compared to wild type control RTV: decreased susceptibility
[3]; L63P-V77I-N88S-RTV
  change in susceptibility compared to wild type control RTV: decrease in susceptibility; also recorded: resistance
[3]; L63P-V77I-RTV
  change in susceptibility compared to wild type control RTV: slight decrease in susceptibility
[3]; M46L-L63P-N88S-RTV
  change in susceptibility compared to wild type control RTV: decrease in susceptibility
[3]; M46L-L63P-V77I-N88S-RTV
  change in susceptibility compared to wild type control RTV: decrease in susceptibility
[3]; N88S-RTV
  change in susceptibility compared to wild type control RTV: slightly less susceptible
